Measured values: ChEMBL document CHEMBL5360608 (ACS Med Chem Lett, 2023)
Active and inactive are the calls of the source. No cut-off for these calls is given here.

How the values were obtained:
Mus musculus [1] = test: Analgesic activity in po dosed mouse assessed as licking latency at 77 uM measured after 45 mins by hot plate test (reference value: 14.5 to 15.7 sec); type: functional; settings: 0.75 h
Mus musculus [2] = test: Analgesic activity in po dosed mouse assessed as licking latency at 77 uM measured after 30 mins by hot plate test (reference value: 14.5 to 15.7 sec); type: functional; settings: 0.5 h
Rattus norvegicus [3] = organism: Rattus norvegicus; test: Reduction in 9-anthracene carboxylic acid induced myotonic-like condition in Wistar rat skeletal muscle fiber by measuring electable action potential at 0.3 to 10 uM by two intracellular microelectrode current-clamp method; type: functional, tissue-based; settings: Skeletal muscle tissue, dose 0.3-10 µM
Mus musculus [4] = test: Analgesic activity in po dosed mouse assessed as licking latency at 77 uM measured after 15 mins by hot plate test (reference value: 14.5 to 15.7 sec); type: functional; settings: 0.25 h
[5] = target: T1, Sodium channel protein type 4 subunit alpha (Homo sapiens, UniProt P35499); test: Inhibition of human Nav 1.4 expressed in HEK293T cells assessed as phasic block at 10 Hz by whole cell patch clamp assay; type: cell-based
Mus musculus [6] = test: Analgesic activity in po dosed mouse assessed as alterations in motor coordination at high dose by hot plate test; type: functional, organism-based
[7] = target: T1, Sodium channel protein type 4 subunit alpha; test: Inhibition of human Nav 1.4 expressed in HEK293T cells assessed as tonic block at 0.1 Hz by whole cell patch clamp assay; type: cell-based
Mus musculus [8] = test: Analgesic activity in po dosed mouse assessed as licking latency at 77 uM measured after 60 mins by hot plate test (reference value: 14.5 to 15.7 sec); type: functional; settings: 1 h
Mus musculus [9] = test: Analgesic activity in po dosed mouse assessed as alteration in spontaneous motility at high dose by hot plate test; type: functional, organism-based
[10] = target: T2, Sodium channel protein type 9 subunit alpha (Homo sapiens, UniProt Q15858); test: Inhibition of human Nav 1.7 expressed in HEK293T cells assessed as tonic block at 0.1 Hz by whole cell patch clamp assay; type: cell-based
[11] = target: T2, Sodium channel protein type 9 subunit alpha; test: Inhibition of human Nav 1.7 expressed in HEK293T cells assessed as phasic block at 10 Hz by whole cell patch clamp assay; type: cell-based
Homo sapiens [12] = organism: Homo sapiens; test: Selectivity ratio of IC50 for human Nav 1.7 expressed in HEK293T cells assessed as tonic block at 0.1 Hz to IC50 for human Nav 1.7 expressed in HEK293T cells assessed as phasic block at 10 Hz; type: cell-based
Homo sapiens [13] = organism: Homo sapiens; test: Selectivity ratio of IC50 for human Nav 1.4 expressed in HEK293T cells assessed as tonic block at 0.1 Hz to IC50 for human Nav 1.4 expressed in HEK293T cells assessed as phasic block at 10 Hz; type: cell-based
Rattus norvegicus [14] = organism: Rattus norvegicus; test: Reduction in 9-anthracene carboxylic acid induced myotonic-like condition in Wistar rat skeletal muscle fiber by measuring electable action potential at upto 10 uM by two intracellular microelectrode current-clamp method; type: functional, tissue-based; settings: Skeletal muscle tissue

T2 sequence (Q15858 whole entry): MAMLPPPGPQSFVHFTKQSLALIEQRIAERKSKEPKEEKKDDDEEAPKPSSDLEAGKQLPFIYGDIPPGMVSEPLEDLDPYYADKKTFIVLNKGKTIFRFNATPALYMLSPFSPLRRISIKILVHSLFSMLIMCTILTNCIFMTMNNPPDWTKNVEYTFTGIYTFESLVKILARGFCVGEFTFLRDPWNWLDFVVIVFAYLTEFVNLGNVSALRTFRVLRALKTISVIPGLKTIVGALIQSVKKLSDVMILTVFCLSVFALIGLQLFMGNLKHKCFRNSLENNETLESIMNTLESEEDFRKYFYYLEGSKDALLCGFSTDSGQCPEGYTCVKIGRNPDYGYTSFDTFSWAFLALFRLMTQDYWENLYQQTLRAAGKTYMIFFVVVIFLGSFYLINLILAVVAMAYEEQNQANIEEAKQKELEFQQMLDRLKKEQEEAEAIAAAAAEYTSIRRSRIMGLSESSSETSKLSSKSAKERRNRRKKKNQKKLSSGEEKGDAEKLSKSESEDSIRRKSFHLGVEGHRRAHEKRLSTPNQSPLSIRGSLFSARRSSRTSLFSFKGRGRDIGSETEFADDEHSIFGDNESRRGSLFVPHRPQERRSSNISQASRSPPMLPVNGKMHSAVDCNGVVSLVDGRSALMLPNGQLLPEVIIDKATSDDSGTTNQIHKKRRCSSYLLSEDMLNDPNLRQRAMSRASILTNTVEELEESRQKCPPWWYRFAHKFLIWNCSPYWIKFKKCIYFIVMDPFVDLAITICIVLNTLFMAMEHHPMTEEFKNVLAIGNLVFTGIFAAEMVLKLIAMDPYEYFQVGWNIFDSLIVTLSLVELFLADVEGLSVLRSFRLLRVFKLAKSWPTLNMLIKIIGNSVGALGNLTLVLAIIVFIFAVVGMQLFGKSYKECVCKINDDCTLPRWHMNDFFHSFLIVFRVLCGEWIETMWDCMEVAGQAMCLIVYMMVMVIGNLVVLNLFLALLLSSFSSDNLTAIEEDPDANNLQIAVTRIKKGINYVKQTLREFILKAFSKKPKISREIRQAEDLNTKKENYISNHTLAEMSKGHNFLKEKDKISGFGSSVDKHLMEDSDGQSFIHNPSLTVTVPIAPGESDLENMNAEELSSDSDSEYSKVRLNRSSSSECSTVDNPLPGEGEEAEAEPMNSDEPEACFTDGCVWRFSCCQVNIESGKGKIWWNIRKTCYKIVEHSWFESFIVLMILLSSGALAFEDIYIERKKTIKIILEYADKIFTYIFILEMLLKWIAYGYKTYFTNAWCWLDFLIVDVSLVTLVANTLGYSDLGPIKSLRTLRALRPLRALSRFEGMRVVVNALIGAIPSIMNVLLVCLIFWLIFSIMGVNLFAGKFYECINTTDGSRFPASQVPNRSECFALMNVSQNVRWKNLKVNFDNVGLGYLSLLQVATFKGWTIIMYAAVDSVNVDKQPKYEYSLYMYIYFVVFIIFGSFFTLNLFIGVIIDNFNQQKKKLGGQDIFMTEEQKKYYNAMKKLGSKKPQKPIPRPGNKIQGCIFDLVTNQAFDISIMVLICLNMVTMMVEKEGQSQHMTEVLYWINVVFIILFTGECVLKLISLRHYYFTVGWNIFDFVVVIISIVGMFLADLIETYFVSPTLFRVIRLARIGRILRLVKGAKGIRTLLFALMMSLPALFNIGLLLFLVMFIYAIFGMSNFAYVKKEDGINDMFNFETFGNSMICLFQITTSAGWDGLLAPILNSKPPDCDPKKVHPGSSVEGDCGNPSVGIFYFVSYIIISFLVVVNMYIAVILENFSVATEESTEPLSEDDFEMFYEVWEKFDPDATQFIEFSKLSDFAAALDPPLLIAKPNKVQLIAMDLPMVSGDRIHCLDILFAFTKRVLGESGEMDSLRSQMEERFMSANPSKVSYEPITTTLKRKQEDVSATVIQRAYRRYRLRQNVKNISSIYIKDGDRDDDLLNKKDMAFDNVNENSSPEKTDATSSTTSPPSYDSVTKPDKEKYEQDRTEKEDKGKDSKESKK
T1 sequence (P35499 whole entry): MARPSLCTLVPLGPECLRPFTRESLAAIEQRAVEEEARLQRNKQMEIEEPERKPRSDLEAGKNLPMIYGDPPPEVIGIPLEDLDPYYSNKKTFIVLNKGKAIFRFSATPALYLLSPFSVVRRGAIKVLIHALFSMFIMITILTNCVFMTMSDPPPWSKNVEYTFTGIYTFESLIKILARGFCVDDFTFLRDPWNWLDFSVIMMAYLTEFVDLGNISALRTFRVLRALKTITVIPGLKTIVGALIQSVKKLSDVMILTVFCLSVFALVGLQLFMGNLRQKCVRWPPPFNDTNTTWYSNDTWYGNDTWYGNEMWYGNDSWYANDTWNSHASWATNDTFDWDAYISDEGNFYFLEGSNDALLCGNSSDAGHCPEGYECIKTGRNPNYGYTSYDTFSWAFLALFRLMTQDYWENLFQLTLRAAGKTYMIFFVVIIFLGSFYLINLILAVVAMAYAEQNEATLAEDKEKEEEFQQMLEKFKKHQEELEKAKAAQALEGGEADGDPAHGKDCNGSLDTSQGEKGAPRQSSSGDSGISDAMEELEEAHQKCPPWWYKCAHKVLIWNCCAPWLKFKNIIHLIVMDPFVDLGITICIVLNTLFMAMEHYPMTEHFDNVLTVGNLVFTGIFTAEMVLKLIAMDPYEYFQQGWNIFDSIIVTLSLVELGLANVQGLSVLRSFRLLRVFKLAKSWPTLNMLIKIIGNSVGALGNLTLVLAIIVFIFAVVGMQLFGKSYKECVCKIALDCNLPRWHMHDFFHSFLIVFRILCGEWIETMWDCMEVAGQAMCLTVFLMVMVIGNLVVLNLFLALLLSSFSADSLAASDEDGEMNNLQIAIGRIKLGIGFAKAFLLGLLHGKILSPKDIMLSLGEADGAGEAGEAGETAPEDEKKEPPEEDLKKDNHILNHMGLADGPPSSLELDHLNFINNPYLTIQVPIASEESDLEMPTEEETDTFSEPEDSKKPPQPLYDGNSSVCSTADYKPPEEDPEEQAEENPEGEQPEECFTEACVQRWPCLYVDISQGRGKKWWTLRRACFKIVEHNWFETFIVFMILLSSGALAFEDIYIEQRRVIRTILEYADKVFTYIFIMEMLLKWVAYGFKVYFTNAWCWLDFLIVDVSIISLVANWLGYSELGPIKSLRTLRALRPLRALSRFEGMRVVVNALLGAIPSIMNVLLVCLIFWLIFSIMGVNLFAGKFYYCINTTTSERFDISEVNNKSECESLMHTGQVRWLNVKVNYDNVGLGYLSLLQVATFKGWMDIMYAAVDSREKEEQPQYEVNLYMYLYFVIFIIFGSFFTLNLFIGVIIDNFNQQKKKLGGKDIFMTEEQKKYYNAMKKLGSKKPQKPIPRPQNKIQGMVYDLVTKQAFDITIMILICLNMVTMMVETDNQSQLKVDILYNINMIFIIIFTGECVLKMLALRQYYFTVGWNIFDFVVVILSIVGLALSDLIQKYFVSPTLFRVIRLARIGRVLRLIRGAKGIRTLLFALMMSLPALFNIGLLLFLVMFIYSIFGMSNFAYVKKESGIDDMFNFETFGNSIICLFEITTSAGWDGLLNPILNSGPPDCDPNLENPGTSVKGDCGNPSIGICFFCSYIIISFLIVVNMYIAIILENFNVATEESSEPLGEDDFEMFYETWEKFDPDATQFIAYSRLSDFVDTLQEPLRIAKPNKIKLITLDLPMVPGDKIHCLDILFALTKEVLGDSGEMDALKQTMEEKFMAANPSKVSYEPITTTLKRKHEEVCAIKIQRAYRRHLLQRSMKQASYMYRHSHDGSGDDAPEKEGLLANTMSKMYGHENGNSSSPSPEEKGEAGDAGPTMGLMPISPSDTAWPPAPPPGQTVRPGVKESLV

IC50 [5]	IC50 [7]	IC50 [10]	IC50 [11]	Structure (SMILES)	Activity (Mus musculus [1])	Activity (Mus musculus [2])	Activity (Rattus norvegicus [3])	Activity (Mus musculus [4])	Activity (Mus musculus [6])	Activity (Mus musculus [8])	Activity (Mus musculus [9])	Ratio IC50 (Homo sapiens [12])	Ratio IC50 (Homo sapiens [13])	Activity (Rattus norvegicus [14])
51 µM	63 µM	–	–	Nc1nc2ccc(OC(F)(F)F)cc2s1 [RILUZOLE]	24.3 s	25.6 s	Active	20.5 s	inactive	18.3 s	inactive	–	–	–
38 µM	95 µM	52 µM	24 µM	FC(F)(F)Oc1ccc2nc(N3CCNCC3)sc2c1	17.3 s	18.8 s	–	16.8 s	–	15.5 s	–	2.2	2.5	–
89 µM	118 µM	–	–	CC(C)c1ccc2nc(N)sc2c1	–	–	–	–	–	–	–	–	1.3	–
–	–	–	–	CNCCN(C)c1nc2ccc(OC(F)(F)F)cc2s1	16.6 s	18 s	–	17.8 s	–	16 s	–	–	–	–
63 µM	250 µM	106 µM	48 µM	c1ccc(Oc2ccc3nc(N4CCNCC4)sc3c2)cc1	23.1 s	26.2 s	–	21.6 s	inactive	19.9 s	inactive	2.2	4	inactive
53 µM	58 µM	–	–	Nc1nc2ccc(C(F)(F)F)cc2s1	–	–	–	–	–	–	–	–	1.1	–
